Measurements as given in the supplement of paper PMC10307832.

Tests used:
Assay in all cases: relative viability (nuclei count vs DMSO), 5 days (fraction); higher = more cells survive
[1] = compound: O=C(O)c1ccc2c(c1)nc(Nc1cccc(Cl)c1)c1ccncc12 [Silmitasertib] + Nc1nc2[nH]cc(CCc3ccc(C(=O)N[C@@H](CCC(=O)O)C(=O)O)cc3)c2c(=O)[nH]1 [Pemetrexed] (partner 0.2 µM)
Outline: (§1)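 Nuclei were stained with Hoechst during a one-step fixation (final 0.05% Triton X-100, 1% formaldehyde, 1 ug/ml Hoechst) carried out 5 days after dosing, then counted on 4× images. The cells, lung cancer lines in 1536-well plates, had been dosed by pin tool the day after seeding with one drug alone or a fixed anchor-drug dose plus five library-drug doses (not always all listed) in √10 steps. Relative viability is the nuclei count in treated wells divided by that in vehicle wells, and each value is the median of duplicate plates.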

[2] = compound: O=C(O)c1ccc2c(c1)nc(Nc1cccc(Cl)c1)c1ccncc12 [Silmitasertib] + CC(=O)c1c(C)c2cnc(Nc3ccc(N4CCNCC4)cn3)nc2n(C2CCCC2)c1=O [Palbociclib] (partner 0.5 µM)
Outline: as §1

[3] = compound: O=C(O)c1ccc2c(c1)nc(Nc1cccc(Cl)c1)c1ccncc12 [Silmitasertib] + CS(=O)(=O)N1CCN(Cc2cc3nc(-c4cccc5[nH]ncc45)nc(N4CCOCC4)c3s2)CC1 [Pictilisib] (partner 1 µM)
Outline: as §1

[4] = compound: O=C(O)c1ccc2c(c1)nc(Nc1cccc(Cl)c1)c1ccncc12 [Silmitasertib] + CS(=O)(=O)CCNCc1ccc(-c2ccc3ncnc(Nc4ccc(OCc5cccc(F)c5)c(Cl)c4)c3c2)o1 [Lapatinib] (partner 2 µM)
Outline: as §1

[5] = compound: O=C(O)c1ccc2c(c1)nc(Nc1cccc(Cl)c1)c1ccncc12 [Silmitasertib] + CC(C)C[C@H](NC(=O)[C@H](Cc1ccccc1)NC(=O)c1cnccn1)B(O)O [Bortezomib] (partner 0.002 µM)
Outline: as §1

With HCC-366 the relative viability ([1]; first compound 0.04 µM) was 0.13, the relative viability ([1]; first compound 0.4 µM) was 0.162 and the relative viability ([1]; first compound 1.265 µM) was 0.175. The relative viability ([1]; first compound 4 µM) was 0.128, the relative viability ([2]; first compound 0.04 µM) was 0.422 and the relative viability ([2]; first compound 0.4 µM) was 0.329. It also gave a relative viability ([2]; first compound 1.265 µM) of 0.36, a relative viability ([2]; first compound 4 µM) of 0.38 and a relative viability ([3]; first compound 0.04 µM) of 0.138. It also gave a relative viability ([3]; first compound 0.4 µM) of 0.137, a relative viability ([3]; first compound 1.265 µM) of 0.0849 and a relative viability ([3]; first compound 4 µM) of 0.141. The relative viability ([4]; first compound 0.04 µM) was 1.2, the relative viability ([4]; first compound 1.265 µM) was 0.784 and the relative viability ([4]; first compound 4 µM) was 0.12. The relative viability ([5]; first compound 0.04 µM) was 1.1, the relative viability ([5]; first compound 1.265 µM) was 0.995 and the relative viability ([5]; first compound 4 µM) was 0.482.

With HCC-827 the relative viability ([1]; first compound 0.04 µM) was 0.282, the relative viability ([1]; first compound 1.265 µM) was 0.282 and the relative viability ([1]; first compound 4 µM) was 0.273. For the same cell line, the relative viability ([2]; first compound 0.04 µM) was 0.556, the relative viability ([2]; first compound 1.265 µM) was 0.343 and the relative viability ([2]; first compound 4 µM) was 0.442. The relative viability ([3]; first compound 0.04 µM) was 1.04, the relative viability ([3]; first compound 1.265 µM) was 0.751 and the relative viability ([3]; first compound 4 µM) was 0.788. It also gave a relative viability ([4]; first compound 0.04 µM) of 0.197, a relative viability ([4]; first compound 1.265 µM) of 0.193 and a relative viability ([4]; first compound 4 µM) of 0.135. For the same cell line, the relative viability ([5]; first compound 0.04 µM) was 1.04, the relative viability ([5]; first compound 1.265 µM) was 1.2 and the relative viability ([5]; first compound 4 µM) was 0.89.

For HOP-62, the relative viability ([1]; first compound 0.04 µM) was 0.281, the relative viability ([1]; first compound 1.265 µM) was 0.269 and the relative viability ([1]; first compound 4 µM) was 0.301. The relative viability ([2]; first compound 0.04 µM) was 0.466, the relative viability ([2]; first compound 1.265 µM) was 0.373 and the relative viability ([2]; first compound 4 µM) was 0.396. It also gave a relative viability ([3]; first compound 0.04 µM) of 0.809, a relative viability ([3]; first compound 1.265 µM) of 0.654 and a relative viability ([3]; first compound 4 µM) of 0.279. It also gave a relative viability ([4]; first compound 0.04 µM) of 1.07, a relative viability ([4]; first compound 1.265 µM) of 0.878 and a relative viability ([4]; first compound 4 µM) of 0.229. For the same cell line, the relative viability ([5]; first compound 0.04 µM) was 0.504, the relative viability ([5]; first compound 1.265 µM) was 0.425 and the relative viability ([5]; first compound 4 µM) was 0.486.

For LC-2-ad, the relative viability ([1]; first compound 0.04 µM) was 0.288, the relative viability ([1]; first compound 0.4 µM) was 0.264 and the relative viability ([1]; first compound 1.265 µM) was 0.26. The relative viability ([1]; first compound 4 µM) was 0.227, the relative viability ([2]; first compound 0.04 µM) was 0.47 and the relative viability ([2]; first compound 0.4 µM) was 0.499. It also gave a relative viability ([2]; first compound 1.265 µM) of 0.462, a relative viability ([2]; first compound 4 µM) of 0.538 and a relative viability ([3]; first compound 0.04 µM) of 0.448. The relative viability ([3]; first compound 0.4 µM) was 0.443, the relative viability ([3]; first compound 1.265 µM) was 0.525 and the relative viability ([3]; first compound 4 µM) was 0.332. For the same cell line, the relative viability ([4]; first compound 0.04 µM) was 1.06, the relative viability ([4]; first compound 0.4 µM) was 0.855 and the relative viability ([4]; first compound 1.265 µM) was 0.951. The relative viability ([4]; first compound 4 µM) was 0.233, the relative viability ([5]; first compound 0.04 µM) was 1.13 and the relative viability ([5]; first compound 0.4 µM) was 0.858. It also gave a relative viability ([5]; first compound 1.265 µM) of 1 and a relative viability ([5]; first compound 4 µM) of 0.605.

Work on LCLC-97TM1 yielded a relative viability ([1]; first compound 0.04 µM) of 0.187, a relative viability ([1]; first compound 1.265 µM) of 0.186 and a relative viability ([1]; first compound 4 µM) of 0.144. The relative viability ([2]; first compound 0.04 µM) was 0.234, the relative viability ([2]; first compound 1.265 µM) was 0.15 and the relative viability ([2]; first compound 4 µM) was 0.151. It also gave a relative viability ([3]; first compound 0.04 µM) of 0.19, a relative viability ([3]; first compound 1.265 µM) of 0.15 and a relative viability ([3]; first compound 4 µM) of 0.112. The relative viability ([4]; first compound 0.04 µM) was 0.999, the relative viability ([4]; first compound 1.265 µM) was 1.04 and the relative viability ([4]; first compound 4 µM) was 0.192. The relative viability ([5]; first compound 0.04 µM) was 1.13, the relative viability ([5]; first compound 1.265 µM) was 0.521 and the relative viability ([5]; first compound 4 µM) was 0.208.

In the case of LCLC-103H, the relative viability ([1]; first compound 0.04 µM) is reported as 0.49, the relative viability ([1]; first compound 0.4 µM) is reported as 0.394 and the relative viability ([1]; first compound 1.265 µM) is reported as 0.416. It also gave a relative viability ([1]; first compound 4 µM) of 0.378, a relative viability ([2]; first compound 0.04 µM) of 0.462 and a relative viability ([2]; first compound 0.4 µM) of 0.45. The relative viability ([2]; first compound 1.265 µM) was 0.266, the relative viability ([2]; first compound 4 µM) was 0.389 and the relative viability ([3]; first compound 0.04 µM) was 0.578. The relative viability ([3]; first compound 0.4 µM) was 0.702, the relative viability ([3]; first compound 1.265 µM) was 0.565 and the relative viability ([3]; first compound 4 µM) was 0.446. For the same cell line, the relative viability ([5]; first compound 0.04 µM) was 1.15, the relative viability ([5]; first compound 0.4 µM) was 0.956 and the relative viability ([5]; first compound 1.265 µM) was 0.817. It also gave a relative viability ([5]; first compound 4 µM) of 0.739.

Cell Line LK-2 has a relative viability ([1]; first compound 0.04 µM) of 0.254, a relative viability ([1]; first compound 1.265 µM) of 0.084 and a relative viability ([1]; first compound 4 µM) of 0.297. The relative viability ([2]; first compound 0.04 µM) was 0.593, the relative viability ([2]; first compound 1.265 µM) was 0.509 and the relative viability ([2]; first compound 4 µM) was 0.397. For the same cell line, the relative viability ([3]; first compound 0.04 µM) was 0.618, the relative viability ([3]; first compound 0.4 µM) was 0.52 and the relative viability ([3]; first compound 1.265 µM) was 0.514. For the same cell line, the relative viability ([3]; first compound 4 µM) was 0.499, the relative viability ([4]; first compound 0.04 µM) was 1.12 and the relative viability ([4]; first compound 0.4 µM) was 0.928. The relative viability ([4]; first compound 1.265 µM) was 0.867 and the relative viability ([4]; first compound 4 µM) was 0.718.

Cell Line LOU-NH91 has a relative viability ([1]; first compound 0.04 µM) of 0.357, a relative viability ([1]; first compound 0.4 µM) of 0.383 and a relative viability ([1]; first compound 1.265 µM) of 0.368. The relative viability ([1]; first compound 4 µM) was 0.457, the relative viability ([2]; first compound 0.04 µM) was 0.519 and the relative viability ([2]; first compound 0.4 µM) was 0.522. It also gave a relative viability ([2]; first compound 1.265 µM) of 0.579, a relative viability ([2]; first compound 4 µM) of 0.553 and a relative viability ([3]; first compound 0.04 µM) of 0.574. For the same cell line, the relative viability ([3]; first compound 0.4 µM) was 0.507, the relative viability ([3]; first compound 1.265 µM) was 0.464 and the relative viability ([3]; first compound 4 µM) was 0.388. The relative viability ([4]; first compound 0.04 µM) was 0.747, the relative viability ([4]; first compound 0.4 µM) was 0.649 and the relative viability ([4]; first compound 1.265 µM) was 0.548. For the same cell line, the relative viability ([4]; first compound 4 µM) was 0.516, the relative viability ([5]; first compound 0.04 µM) was 0.509 and the relative viability ([5]; first compound 0.4 µM) was 0.46. The relative viability ([5]; first compound 1.265 µM) was 0.394 and the relative viability ([5]; first compound 4 µM) was 0.452.

Cell Line LU99A has a relative viability ([1]; first compound 0.04 µM) of 0.187, a relative viability ([1]; first compound 0.4 µM) of 0.168 and a relative viability ([1]; first compound 1.265 µM) of 0.148. The relative viability ([1]; first compound 4 µM) was 0.168, the relative viability ([2]; first compound 0.04 µM) was 0.359 and the relative viability ([2]; first compound 0.4 µM) was 0.397. For the same cell line, the relative viability ([2]; first compound 1.265 µM) was 0.325, the relative viability ([2]; first compound 4 µM) was 0.404 and the relative viability ([3]; first compound 0.04 µM) was 0.325. For the same cell line, the relative viability ([3]; first compound 0.4 µM) was 0.331, the relative viability ([3]; first compound 1.265 µM) was 0.297 and the relative viability ([3]; first compound 4 µM) was 0.291. The relative viability ([4]; first compound 0.04 µM) was 1.04, the relative viability ([4]; first compound 0.4 µM) was 1.03 and the relative viability ([4]; first compound 1.265 µM) was 0.613. The relative viability ([4]; first compound 4 µM) was 0.588, the relative viability ([5]; first compound 0.04 µM) was 1.22 and the relative viability ([5]; first compound 0.4 µM) was 1.18. For the same cell line, the relative viability ([5]; first compound 1.265 µM) was 0.899 and the relative viability ([5]; first compound 4 µM) was 0.438.
